According to PubChem BioAssay (NCI):
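Exposure lasted 48 hours, with cells grown in 96-well plates and compounds tested at five concentrations. TGI is the concentration that stops growth completely.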

Experiments:
Experiment in all cases: NCI-60 cell line screen, 48 h
EKVX NSCLC = test system: EKVX NSCLC
HCT-116 colon = test system: HCT-116 colon
HCT-15 colon = test system: HCT-15 colon
HOP-62 NSCLC = test system: HOP-62 NSCLC
K-562 leukemia = test system: K-562 leukemia
LOX IMVI melanoma = test system: LOX IMVI melanoma
MDA-MB-231 breast = test system: MDA-MB-231 breast
MDA-MB-435 = test system: MDA-MB-435
MOLT-4 leukemia = test system: MOLT-4 leukemia
NCI-H23 lung = test system: NCI-H23 lung
NCI-H522 lung = test system: NCI-H522 lung
OVCAR-3 ovarian = test system: OVCAR-3 ovarian
OVCAR-4 ovarian = test system: OVCAR-4 ovarian
SF-268 CNS = test system: SF-268 CNS
SF-295 CNS = test system: SF-295 CNS
SK-MEL-2 melanoma = test system: SK-MEL-2 melanoma
SK-MEL-5 melanoma = test system: SK-MEL-5 melanoma
SNB-75 CNS = test system: SNB-75 CNS
SR leukemia = test system: SR leukemia
DU-145 prostate = test system: DU-145 prostate

Row | Compound | TGI (EKVX NSCLC) | TGI (HCT-116 colon) | TGI (HCT-15 colon) | TGI (HOP-62 NSCLC) | TGI (K-562 leukemia) | TGI (LOX IMVI melanoma) | TGI (MDA-MB-231 breast) | TGI (MDA-MB-435) | TGI (MOLT-4 leukemia) | TGI (NCI-H23 lung) | TGI (NCI-H522 lung) | TGI (OVCAR-3 ovarian) | TGI (OVCAR-4 ovarian) | TGI (SF-268 CNS) | TGI (SF-295 CNS) | TGI (SK-MEL-2 melanoma) | TGI (SK-MEL-5 melanoma) | TGI (SNB-75 CNS) | TGI (SR leukemia) | TGI (DU-145 prostate)
1 | O=C1c2ccsc2C(=O)c2sc(CO)cc21 | 2.39 µM | 0.279 µM | 0.102 µM | 0.325 µM | 2.48 µM | 0.0491 µM | 0.48 µM | < 0.0178 µM | > 100 µM | 0.394 µM | 0.259 µM | 2.74 µM | 0.31 µM | 2.31 µM | 0.951 µM | 0.232 µM | 0.0163 µM | 0.104 µM | > 10.8 µM | –
2 | c1ccc(CNc2nncc3[nH]cnc23)cc1 | > 100 µM | > 100 µM | > 100 µM | > 100 µM | > 100 µM | > 100 µM | > 100 µM | > 100 µM | > 100 µM | > 100 µM | > 100 µM | > 100 µM | > 100 µM | – | > 100 µM | > 100 µM | > 100 µM | > 100 µM | > 100 µM | –
3 | Cc1cc(N(CCC#N)CCC#N)ccc1/C=C(\NC(=O)/C=C/c1ccccc1)C(N)=O | > 100 µM | > 100 µM | > 100 µM | > 100 µM | > 100 µM | > 100 µM | – | – | > 100 µM | > 100 µM | > 100 µM | > 100 µM | – | > 100 µM | > 100 µM | > 100 µM | > 100 µM | > 100 µM | – | –
4 | CCOC(=O)CC(C)C1(C(=O)OCC)CCCCC1=O (centres undefined) | > 100 µM | > 100 µM | 50 µM | > 100 µM | > 100 µM | > 100 µM | – | – | > 100 µM | – | > 100 µM | > 100 µM | > 100 µM | > 100 µM | > 100 µM | > 100 µM | > 100 µM | > 100 µM | 55.4 µM | –
5 | Nc1nc([O-])c2c(n1)[n+](C1OC(CO)C(O)C1O)cn2CCO (centres undefined) | > 100 µM | > 100 µM | > 100 µM | > 100 µM | > 100 µM | > 100 µM | – | – | – | – | > 100 µM | > 100 µM | > 100 µM | > 100 µM | > 100 µM | > 100 µM | > 100 µM | > 100 µM | > 100 µM | –
6 | CN=C(SC)N(C)c1nc(=[N+](C)C)ss1 | > 100 µM | > 100 µM | > 100 µM | > 100 µM | 69 µM | > 100 µM | – | – | > 100 µM | > 100 µM | > 100 µM | – | – | > 100 µM | > 100 µM | > 100 µM | > 100 µM | > 100 µM | > 100 µM | –
7 | Cc1cc(NS(=O)(=O)c2ccc(Nc3c4ccccc4nc4c(C(=O)N5CCN(CCO)CC5)cccc34)cc2)no1 | > 100 µM | > 100 µM | > 100 µM | > 100 µM | > 100 µM | > 100 µM | – | – | > 100 µM | > 100 µM | > 100 µM | > 100 µM | > 100 µM | > 100 µM | > 100 µM | > 100 µM | > 100 µM | > 100 µM | > 100 µM | –
8 | CC(C)=C[C@H]1CCC2(OCCO2)[C@]1(C)CO | > 100 µM | > 100 µM | > 100 µM | – | – | > 100 µM | > 100 µM | > 100 µM | – | > 100 µM | > 100 µM | – | > 100 µM | > 100 µM | > 100 µM | > 100 µM | > 100 µM | > 100 µM | – | –
9 | CC(C)=C[C@H]1CCC2(OCCO2)[C@]1(C)COCc1ccccc1 | > 100 µM | > 100 µM | > 100 µM | – | – | 31 µM | 53.7 µM | > 100 µM | 32.3 µM | > 100 µM | 62.1 µM | 52.7 µM | > 100 µM | > 100 µM | > 100 µM | 85.9 µM | 32 µM | > 100 µM | – | –
10 | C[Si](C)(C)OC1CC(=O)OC1n1cc(F)c(=O)[nH]c1=O (centres undefined) | > 100 µM | > 69 µM | > 54 µM | > 100 µM | > 100 µM | 32.5 µM | – | – | > 100 µM | > 100 µM | > 100 µM | > 100 µM | > 100 µM | > 100 µM | > 100 µM | > 100 µM | > 100 µM | > 100 µM | 9.38 µM | –
11 | O=C(c1ccco1)N(C(=S)OCCOc1ccccc1)c1ccccc1 | 52.4 µM | 32.5 µM | 45.3 µM | 32.1 µM | 83.4 µM | 34.5 µM | 30.6 µM | 29.7 µM | 55.3 µM | 39.9 µM | 40.5 µM | 32.2 µM | 57.3 µM | 35.3 µM | 36.6 µM | 41.1 µM | – | – | – | 51.6 µM
12 | O=C(CC(=O)n1nc(-c2ccccc2)c(N=Nc2ccc(Cl)cc2)c1-c1ccccc1)Nc1ccc(Cl)cc1 | > 100 µM | > 55.1 µM | > 55.8 µM | > 100 µM | > 66.2 µM | > 56.9 µM | – | – | > 100 µM | > 100 µM | > 100 µM | > 100 µM | > 100 µM | > 100 µM | > 100 µM | > 100 µM | > 100 µM | > 100 µM | > 100 µM | –
13 | Cn1c([C@H](C#N)c2ncccc2[N+](=O)[O-])nc2ccccc21 | > 100 µM | > 100 µM | > 100 µM | 67.6 µM | > 100 µM | > 100 µM | > 100 µM | > 100 µM | > 100 µM | > 100 µM | 38.3 µM | > 100 µM | – | > 100 µM | > 100 µM | > 100 µM | – | 67.1 µM | > 100 µM | –
14 | COC(=O)CC1N=C(NC#N)N(CCc2c[nH]c3ccccc23)C1=O (centres undefined) | > 100 µM | > 100 µM | > 100 µM | > 100 µM | > 100 µM | > 100 µM | – | – | > 100 µM | > 100 µM | – | > 100 µM | > 100 µM | > 100 µM | > 100 µM | – | > 100 µM | > 100 µM | > 100 µM | –
15 | Nc1ccc(Cc2c(N)[nH]c(=O)[nH]c2=O)cc1 | – | > 100 µM | > 100 µM | – | > 100 µM | > 100 µM | > 100 µM | > 100 µM | > 100 µM | > 100 µM | > 100 µM | > 100 µM | > 100 µM | > 100 µM | > 100 µM | > 100 µM | > 100 µM | – | – | > 100 µM
16 | O=c1cc(-c2ccc(Oc3ccccc3)cc2)[nH]c2cc3c(cc12)OCO3 | > 100 µM | > 100 µM | > 100 µM | > 100 µM | > 100 µM | > 100 µM | – | – | > 100 µM | > 100 µM | – | > 100 µM | > 100 µM | > 100 µM | > 100 µM | > 100 µM | > 100 µM | > 100 µM | > 100 µM | –
17 | CC(=O)O[C@H]1C(=O)[C@@]2(C)C(C(OC(=O)c3ccccc3)[C@]3(O)CC(OC(=O)C(O)C(NC(=O)c4ccc(C(F)(F)F)cc4)c4ccccc4)C(C)=C1C3(C)C)[C@]1(OC(C)=O)CO[C@@H]1C[C@@H]2O (some centres undefined) | – | 0.196 µM | 13.5 µM | 0.506 µM | 14.8 µM | 6.43 µM | – | – | 7.39 µM | 1.06 µM | 0.2 µM | 0.194 µM | > 37.5 µM | 5.3 µM | 1.79 µM | 0.284 µM | 3.8 µM | 0.00891 µM | 4.96 µM | –
18 | NNC(=S)N/N=C(/C(=O)Nc1ccc(Cl)c(Cl)c1)C(C1OC(=O)c2ccccc21)[N+](=O)[O-] (centres undefined) | > 100 µM | > 100 µM | > 100 µM | > 100 µM | > 100 µM | > 100 µM | > 100 µM | > 100 µM | > 100 µM | > 100 µM | > 100 µM | > 100 µM | > 100 µM | > 100 µM | > 100 µM | > 100 µM | > 100 µM | > 100 µM | – | –
19 | CC1=CCC(O)C=CC(C)C(O)C(C)C=C(C)C(=O)c2c(O)c(C)cc3c2C(=O)C(N)=C(NC(=O)/C=C\C=C/C=CC(C)C(O)CC1=O)C3=O (centres undefined) | > 100 µM | 54.4 µM | > 100 µM | > 100 µM | > 100 µM | > 100 µM | – | – | > 100 µM | > 100 µM | 35.3 µM | > 100 µM | > 100 µM | > 100 µM | > 100 µM | > 100 µM | > 100 µM | > 100 µM | – | –
20 | CN(C)CC1CCCC(CN(C)C)C1OC(=O)c1ccccc1 (centres undefined) | > 100 µM | > 100 µM | > 100 µM | > 100 µM | > 100 µM | > 100 µM | – | – | > 100 µM | > 100 µM | > 100 µM | > 100 µM | > 100 µM | > 100 µM | > 100 µM | > 100 µM | > 100 µM | > 100 µM | > 100 µM | –
21 | CC1(C)C[C@@H]2C1CCC1(C)CC2(O)CC[C@H]1O (some centres undefined) | > 100 µM | – | > 100 µM | > 100 µM | > 100 µM | > 100 µM | – | > 100 µM | > 100 µM | > 100 µM | > 100 µM | > 100 µM | > 100 µM | > 100 µM | > 100 µM | > 100 µM | > 100 µM | > 100 µM | > 100 µM | –
